Source: patent US20080200454A1, “CARBON-LINKED TETRAHYDRO-PYRAZOLO-PYRIDINE MODULATORS OF CATHEPSIN S” (priority 2007, published 2008)
Where two headings read alike, the source gives them in different places.

Biological target: Recombinant human cathepsin S (CatS) (Homo sapiens, UniProt P25774)
Assay: Recombinant human cathepsin S (CatS) inhibition assay, fluorogenic substrate Z-Valine-Valine-Arginine-AMC;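 further: Baculovirus-expressed CatS in pH 5.0 sodium acetate buffer with DTT and NaCl, fluorescence read each minute over 20 min, inhibition derived from rate slope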
[1] = CatS IC50, Table 2, average of results obtained

Chain of Recombinant human cathepsin S (CatS) (P25774 115-331): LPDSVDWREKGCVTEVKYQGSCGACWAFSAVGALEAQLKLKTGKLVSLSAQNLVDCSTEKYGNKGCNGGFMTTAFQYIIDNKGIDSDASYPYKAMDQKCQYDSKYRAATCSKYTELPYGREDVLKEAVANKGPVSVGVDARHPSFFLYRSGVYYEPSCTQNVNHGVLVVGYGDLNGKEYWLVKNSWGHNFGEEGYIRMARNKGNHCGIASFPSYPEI

SMILES | IC50 [1] [nM] | IC50 (CatS IC50) [nM] | other results
CS(=O)(=O)N1CCc2c(c(-c3ccc(Cl)c(C#Cc4ccc(C(=O)O)cc4)c3)nn2CCCN2CCOCC2)C1 [Example 19, 4-{2-Chloro-5-[5-methanesulfonyl-1-(3-morpholin-4-yl-propyl)-4,5,6,7-tetrahydro-1H-pyrazolo[4,3-c]pyridin-3-yl]-phenylethynyl}-benzoic acid] | 420 | – | –
CS(=O)(=O)N1CCc2c(c(-c3ccc(Cl)c(C#Cc4ccncc4)c3)nn2CCCN2CCOCC2)C1 [Example 20, 3-(4-Chloro-3-pyridin-4-ylethynyl-phenyl)-5-methanesulfonyl-1-(3-morpholin-4-yl-propyl)-4,5,6,7-tetrahydro-1H-pyrazolo[4,3-c]pyridine] | 540 | – | –
CS(=O)(=O)N1CCc2c(c(-c3ccc(Cl)c(C#Cc4cccnc4)c3)nn2CCCN2CCOCC2)C1 [Example 21, 3-(4-Chloro-3-pyridin-3-ylethynyl-phenyl)-5-methanesulfonyl-1-(3-morpholin-4-yl-propyl)-4,5,6,7-tetrahydro-1H-pyrazolo[4,3-c]pyridine] | – | – | IC50: 1320 nM
CS(=O)(=O)N1CCc2c(c(-c3ccc(Cl)c(C#Cc4ccccn4)c3)nn2CCCN2CCOCC2)C1 [Example 22, 3-(4-Chloro-3-pyridin-2-ylethynyl-phenyl)-5-methanesulfonyl-1-(3-morpholin-4-yl-propyl)-4,5,6,7-tetrahydro-1H-pyrazolo[4,3-c]pyridine] | – | – | IC50: 1850 nM
CS(=O)(=O)N1CCc2c(c(-c3ccc(Cl)c(C#Cc4ccsc4)c3)nn2CCCN2CCOCC2)C1 [Example 23, 3-(4-Chloro-3-thiophen-3-ylethynyl-phenyl)-5-methanesulfonyl-1-(3-morpholin-4-yl-propyl)-4,5,6,7-tetrahydro-1H-pyrazolo[4,3-c]pyridine] | 1440 | – | –
COc1ccccc1C#Cc1cc(-c2nn(CCCN3CCOCC3)c3c2CN(S(C)(=O)=O)CC3)ccc1Cl [Example 24, 3-[4-Chloro-3-(2-methoxy-phenylethynyl)-phenyl]-5-methanesulfonyl-1-(3-morpholin-4-yl-propyl)-4,5,6,7-tetrahydro-1H-pyrazolo[4,3-c]pyridine] | – | 560 | –
CS(=O)(=O)N1CCc2c(c(-c3ccc(Cl)c(C#Cc4cccc(Cl)c4)c3)nn2CCCN2CCOCC2)C1 [Example 25, 3-[4-Chloro-3-(3-chloro-phenylethynyl)-phenyl]-5-methanesulfonyl-1-(3-morpholin-4-yl-propyl)-4,5,6,7-tetrahydro-1H-pyrazolo[4,3-c]pyridine] | – | 700 | –
CS(=O)(=O)N1CCc2c(c(-c3ccc(Cl)c(C#Cc4ccccc4Cl)c3)nn2CCCN2CCOCC2)C1 [Example 26, 3-[4-Chloro-3-(2-chloro-phenylethynyl)-phenyl]-5-methanesulfonyl-1-(3-morpholin-4-yl-propyl)-4,5,6,7-tetrahydro-1H-pyrazolo[4,3-c]pyridine] | – | 720 | –
CS(=O)(=O)N1CCc2c(c(-c3ccc(Cl)c(C#Cc4ccc(Cl)cc4)c3)nn2CCCN2CCOCC2)C1 [Example 28, 3-[4-Chloro-3-(4-chloro-phenylethynyl)-phenyl]-5-methanesulfonyl-1-(3-morpholin-4-yl-propyl)-4,5,6,7-tetrahydro-1H-pyrazolo[4,3-c]pyridine] | – | 200 | –
Cc1ccc(C#Cc2cc(-c3nn(CCCN4CCOCC4)c4c3CN(S(C)(=O)=O)CC4)ccc2Cl)cc1 [Example 29, 3-(4-Chloro-3-p-tolylethynyl-phenyl)-5-methanesulfonyl-1-(3-morpholin-4-yl-propyl)-4,5,6,7-tetrahydro-1H-pyrazolo[4,3-c]pyridine] | – | 280 | –
CS(=O)(=O)N1CCc2c(c(-c3ccc(Cl)c(C#Cc4ccc(C(F)(F)F)cc4)c3)nn2CCCN2CCOCC2)C1 [Example 30, 3-[4-Chloro-3-(4-trifluoromethyl-phenylethynyl)-phenyl]-5-methanesulfonyl-1-(3-morpholin-4-yl-propyl)-4,5,6,7-tetrahydro-1H-pyrazolo[4,3-c]pyridine] | – | 430 | –
CS(=O)(=O)N1CCc2c(c(-c3ccc(Cl)c(C#Cc4ccc(F)cc4)c3)nn2CCCN2CCOCC2)C1 [Example 31, 3-[4-Chloro-3-(4-fluoro-phenylethynyl)-phenyl]-5-methanesulfonyl-1-(3-morpholin-4-yl-propyl)-4,5,6,7-tetrahydro-1H-pyrazolo[4,3-c]pyridine] | 440 | – | –
COc1ccc(C#Cc2cc(-c3nn(CCCN4CCOCC4)c4c3CN(S(C)(=O)=O)CC4)ccc2Cl)cc1 [Example 32, 3-[4-Chloro-3-(4-methoxy-phenylethynyl)-phenyl]-5-methanesulfonyl-1-(3-morpholin-4-yl-propyl)-4,5,6,7-tetrahydro-1H-pyrazolo[4,3-c]pyridine] | – | 490 | –
CS(=O)(=O)N1CCc2c(c(-c3ccc(Cl)c(C#Cc4ccc(F)cc4F)c3)nn2CCCN2CCOCC2)C1 [Example 33, 3-[4-Chloro-3-(2,4-difluoro-phenylethynyl)-phenyl]-5-methanesulfonyl-1-(3-morpholin-4-yl-propyl)-4,5,6,7-tetrahydro-1H-pyrazolo[4,3-c]pyridine] | – | 750 | –
CS(=O)(=O)N1CCc2c(c(-c3ccc(Cl)c(C#Cc4ccccc4C(F)(F)F)c3)nn2CCCN2CCOCC2)C1 [Example 34, 3-[4-Chloro-3-(2-trifluoromethyl-phenylethynyl)-phenyl]-5-methanesulfonyl-1-(3-morpholin-4-yl-propyl)-4,5,6,7-tetrahydro-1H-pyrazolo[4,3-c]pyridine] | 870 | – | –
Cc1ccccc1C#Cc1cc(-c2nn(CCCN3CCOCC3)c3c2CN(S(C)(=O)=O)CC3)ccc1Cl [Example 35, 3-(4-Chloro-3-o-tolylethynyl-phenyl)-5-methanesulfonyl-1-(3-morpholin-4-yl-propyl)-4,5,6,7-tetrahydro-1H-pyrazolo[4,3-c]pyridine] | 1050 | – | –
CS(=O)(=O)N1CCc2c(c(-c3ccc(Cl)c(C#Cc4cccc(C(F)(F)F)c4)c3)nn2CCCN2CCOCC2)C1 [Example 36, 3-[4-Chloro-3-(3-trifluoromethyl-phenylethynyl)-phenyl]-5-methanesulfonyl-1-(3-morpholin-4-yl-propyl)-4,5,6,7-tetrahydro-1H-pyrazolo[4,3-c]pyridine] | 1450 | – | –
CS(=O)(=O)N1CCc2c(c(-c3ccc(Cl)c(C#Cc4ccc(C=O)cc4)c3)nn2CCCN2CCOCC2)C1 [Example 37, 4-{2-Chloro-5-[5-methanesulfonyl-1-(3-morpholin-4-yl-propyl)-4,5,6,7-tetrahydro-1H-pyrazolo[4,3-c]pyridin-3-yl]-phenylethynyl}-benzaldehyde] | 120 | – | –
CS(=O)(=O)N1CCc2c(c(-c3ccc(Cl)c(C#Cc4ccc(N)cc4)c3)nn2CCCN2CCOCC2)C1 [Example 38, 4-{2-Chloro-5-[5-methanesulfonyl-1-(3-morpholin-4-yl-propyl)-4,5,6,7-tetrahydro-1H-pyrazolo[4,3-c]pyridin-3-yl]-phenylethynyl}-phenylamine] | 330 | – | –
CS(=O)(=O)N1CCc2c(c(-c3ccc(Cl)c(C#Cc4ccccc4)c3)nn2CCCN2CCOCC2)C1 [Example 39, 3-(4-Chloro-3-phenylethynyl-phenyl)-5-methanesulfonyl-1-(3-morpholin-4-yl-propyl)-4,5,6,7-tetrahydro-1H-pyrazolo[4,3-c]pyridine] | 610 | – | –
CC(C)(C)OC(=O)NCc1ccc(C#Cc2cc(-c3nn(CCCN4CCOCC4)c4c3CN(S(C)(=O)=O)CC4)ccc2Cl)cc1 [Example 40, (4-{2-Chloro-5-[5-methanesulfonyl-1-(3-morpholin-4-yl-propyl)-4,5,6,7-tetrahydro-1H-pyrazolo[4,3-c]pyridin-3-yl]-phenylethynyl}-benzyl)-carbamic acid tert-butyl ester] | – | – | IC50: 410 nM
CS(=O)(=O)N1CCc2c(c(-c3ccc(Cl)c(C#CCc4ccccc4)c3)nn2CCCN2CCOCC2)C1 [Example 41, 3-[4-Chloro-3-(3-phenyl-prop-1-ynyl)-phenyl]-5-methanesulfonyl-1-(3-morpholin-4-yl-propyl)-4,5,6,7-tetrahydro-1H-pyrazolo[4,3-c]pyridine] | – | – | IC50: 3950 nM
CS(=O)(=O)N1CCc2c(c(-c3ccc(Cl)c(C#CCCc4ccccc4)c3)nn2CCCN2CCOCC2)C1 [Example 42, 3-[4-Chloro-3-(4-phenyl-but-1-ynyl)-phenyl]-5-methanesulfonyl-1-(3-morpholin-4-yl-propyl)-4,5,6,7-tetrahydro-1H-pyrazolo[4,3-c]pyridine] | – | – | IC50: 9750 nM
CS(=O)(=O)N1CCc2c(c(-c3ccc(Cl)c(C#CCCCc4ccccc4)c3)nn2CCCN2CCOCC2)C1 [Example 43, 3-[4-Chloro-3-(5-phenyl-pent-1-ynyl)-phenyl]-5-methanesulfonyl-1-(3-morpholin-4-yl-propyl)-4,5,6,7-tetrahydro-1H-pyrazolo[4,3-c]pyridine] | – | – | IC50: 5450 nM
CS(=O)(=O)N1CCc2c(c(-c3ccc(Cl)c(C#CCCO)c3)nn2CCCN2CCOCC2)C1 [Example 45, 4-{2-Chloro-5-[5-methanesulfonyl-1-(3-morpholin-4-yl-propyl)-4,5,6,7-tetrahydro-1H-pyrazolo[4,3-c]pyridin-3-yl]-phenyl}-but-3-yn-1-ol] | 920 | – | –
CS(=O)(=O)N1CCc2c(c(-c3ccc(Cl)c(C#CCCCO)c3)nn2CCCN2CCOCC2)C1 [Example 46, 5-{2-Chloro-5-[5-methanesulfonyl-1-(3-morpholin-4-yl-propyl)-4,5,6,7-tetrahydro-1H-pyrazolo[4,3-c]pyridin-3-yl]-phenyl}-pent-4-yn-1-ol] | – | – | IC50: 7950 nM
CCCCC#Cc1cc(-c2nn(CCCN3CCOCC3)c3c2CN(S(C)(=O)=O)CC3)ccc1Cl [Example 47, 3-(4-Chloro-3-hex-1-ynyl-phenyl)-5-methanesulfonyl-1-(3-morpholin-4-yl-propyl)-4,5,6,7-tetrahydro-1H-pyrazolo[4,3-c]pyridine] | 10600 | – | –
CS(=O)(=O)N1CCc2c(c(-c3ccc(Cl)c(C#CC4CCCCC4)c3)nn2CCCN2CCOCC2)C1 [Example 48, 3-(4-Chloro-3-cyclohexylethynyl-phenyl)-5-methanesulfonyl-1-(3-morpholin-4-yl-propyl)-4,5,6,7-tetrahydro-1H-pyrazolo[4,3-c]pyridine] | – | 6750 | –
